From patent publication US5677288A, “Use of aminoglycosides to protect against excitotoxic neuron damage” (Cypros Pharmaceutical Corporation, priority 1994, dated 1997)
Entries after “also recorded” stand apart in the source; their conditions may differ. Where two headings read alike, the source gives them in different places.

Experiments:
[1] = tested on: N-type calcium channels (N-channels); format: binding, rats or mice; settings: for IC50: omega-conotoxin binding, brain membrane fragments, read-out: N-channel IC50
[2] = molecular target: L-type Ca2+ channel; assay: inhibition of tritiated dihydropyridine PN-200 binding to the L-type Ca2+ channel; settings: in words
Experimental: These tests were carried out as follows. Brain tissue was used from rats or mice that had been anesthetized with halothane and decapitated. Membrane fractions were prepared as follows. Tissue samples were mixed with 25 tissue-volumes of 50 mM Tris-HCl buffer, pH 7.5. Tissue-buffer mixtures were homogenized using a Brinkman Polytron homogenizer, and resulting tissue homogenate was centrifuged at 2,400 g to pellet non-membrane derived material. The supernatant containing the brain membrane fragments was centrifuged at 30,000 g in a refrigerated (4° C.) centrifuge for 20 minutes. The pellet was resuspended in 100 tissue-volumes of the Tris-HCl buffer and centrifuged again as above. The process was repeated two more times, and the resulting pellet was resuspended in Tris-HCl buffer solution. The suspended tissue contained synaptosomal and other neurally derived membrane fragments with intact N-channels.

[3] = tested on: electroconvulsive seizures; assay: electroconvulsive seizures (ECS) in mice; settings: ICV, scale one to six, six = no seizure activity
Experimental: This was accomplished using a set of platinum electrodes placed subcutaneously in two skull regions of Swiss Webster (20-25 gram) mice. The stimulus voltage was 22 mv at a duration of 0.125 mSec.
The seizures were graded on a severity scale of one to six. A score of six represented a complete absence of seizure activity, while a score of one represented the presence of a full tonic-clonic seizure with total hind leg extension. Test drugs were administered via the ICV route in a total volume of 2.5 microliters, 15 minutes prior to the administration of the electroconvulsive shock.

[4] = tested on: CA1 neurons in hippocampal tissue slices; assay: protection of rat hippocampal tissue slices (CA1 population spike recovery) against hypoxia; format: cell-based, Sprague-Dawley rats
[5] = tested on: N-channels on blood platelets; format: binding, human; settings: approximate results from initial tests, read-out: Conotoxin blockage
[6] = tested on: blood platelets; assay: inhibition of ADP-induced platelet aggregation; format: cell-based, human; settings: 20 μM ADP, approximate results from initial tests
[7] = tested on: PTZ-induced seizures; assay: PTZ-induced seizures in mice (ICV); format: in vivo, Swiss Webster mice; settings: for % having seizures: PTZ 70 mg/kg
Experimental: In addition to the in vivo gerbil experiments described in Example 4, aminoglycosides were tested in various ways to evaluate their ability to inhibit experimentally-induced seizures in mice. In one set of tests, male Swiss Webster white mice weighing 20-25 grams were used. The animals (10 per group) were pre-injected with 3 microliters (μL) of either a saline solution (control group), or saline solution containing varying dosages of neomycin sulfate. The injection was performed via the […] route, to insure access of the neomycin to neurons; when these experiments were initially performed, questions concerning the ability of neomycin to penetrate the BBB had not yet been addressed. These injections were performed as described in Haley and McCormick 1957. Twenty minutes after the injections, the animals were administered a dose of 70 mg/kg of the convulsion-inducing drug pentylenetetrazol (PTZ), injected subcutaneously in saline solution. Control animals treated with ICV saline have full seizures within seven minutes following this dose of PTZ.

[8] = tested on: PTZ-induced seizures; settings: in words; not measured in these tests; cited from earlier work
[9] = tested on: PTZ-induced seizures; assay: PTZ-induced seizures in rats (ICV or IP); settings: 2 mg/kg
Experimental: Seizure studies were also performed in male Sprague Dawley rats (250-300 grams). In these studies, cannulas were implanted in the lateral cerebral ventricles of several animals so that the test drugs could be administered directly into the lateral ventricle of the brain. The drugs being tested were administered 15 minutes before the administration of a convulsant drug, PTZ, at a dose of 60 mg/kg (in a saline vehicle) injected subcutaneously.
A second series of experiments was performed where neomycin sulfate was administered by the IP 30 minutes prior to PTZ injection.

Molecule: NC[C@H]1O[C@H](O[C@H]2[C@H](O)[C@@H](O[C@H]3O[C@H](CO)[C@@H](O)[C@H](N)[C@H]3O)[C@H](N)C[C@@H]2N)[C@H](O)[C@@H](O)[C@@H]1O [Kanamycin]
- IC50 [1]: > 50 µM
- L-channel IC50 [2]: No inhibition

Molecule: NC[C@H]1O[C@H](O[C@H]2[C@H](O)[C@@H](O[C@H]3O[C@H](CO)[C@@H](O)[C@H](N)[C@H]3O)[C@H](N)C[C@@H]2N)[C@H](N)[C@@H](O)[C@@H]1O [Bekanamycin]
- IC50 [1]: > 100 µM
- L-channel IC50 [2]: No inhibition

Molecule: Gentamicin
- Seizure Score ([3]; 40 ug): 4.9
- CA1 orthodromic PS recovery ([4]; 2.5 mM, stimulated slices): 60±23%
- neuronal protection against hypoxia (summary) ([4]; in words): restore orthodromic and antidromic activity; also recorded: high level of neuronal protection against hypoxia
- IC50 [5]: 5 µM
- N-channel blocking potency (in words) [1]: intermediate
- N-channel blocking potency (in words) ([1]; listed as gentamicin): most potent N-channel blockers
- IC50 [1]: 10 µM
- IC50 [6]: 2000 µM

Molecule: CNC1C(O)C(NC)C2OC3(O)C(=O)CC(C)OC3OC2C1O (stereo not drawn) [Spectiomycin]
- IC50 [1]: > 1000 µM

Molecule: [H]/N=C(/N)N[C@H]1[C@H](O)[C@@H](O)[C@H](O[C@@H]2O[C@@H](C)[C@](O)(C=O)[C@H]2O[C@@H]2O[C@@H](CO)[C@H](O)[C@@H](O)[C@@H]2NC)[C@@H](N/C(N)=N\[H])[C@@H]1O [Streptomycin]
- protection of CA1 antidromic population spikes ([4]; 10 mM): 38±22%
- neuronal protection against hypoxia (summary) ([4]; in words): ineffective in reducing hypoxic damage to hippocampal tissue slices except when administered in high dosages; also recorded: only marginally effective and required high doses
- neuronal protection against hypoxia (summary) ([4]; in words, listed as streptomycin): some potency but at substantially lower levels; also recorded: lower degree of neuroprotection
- IC50 [5]: 15 µM
- N-channel blocking potency (in words) [1]: low potency
- N-channel blocking potency (in words) ([1]; listed as streptomycin): somewhat less potent N-channel blocker
- IC50 [1]: 25 µM
- IC50 ([6]; Homo sapiens, Platelet): 5000 µM
- L-channel IC50 [2]: No inhibition

Molecule: OC[C@H]1O[C@@H](n2cnc3c(NC4CCCCC4)ncnc32)[C@H](O)[C@@H]1O [Cyclohexyladenosine, cyclohexyladenosine]
- % having seizures ([7]; 2 μg): 40%
- behavioral side effects ([7]; in words): various behavioral side effects such as ataxia (lack of muscular control, as evidenced by an inability to walk properly) and sedation
- known cardiovascular side effects [8]: known to provoke hypotension and bradycardia

Molecule: NC[C@@H]1O[C@H](O[C@H]2[C@@H](O)[C@H](O[C@@H]3[C@@H](O)[C@H](N)C[C@H](N)[C@H]3O[C@H]3O[C@H](CO)[C@@H](O)[C@H](O)[C@H]3N)O[C@@H]2CO)[C@H](N)[C@@H](O)[C@@H]1O [Paromomycin]
- IC50 [1]: 40 µM
- L-channel IC50 [2]: No inhibition

Molecule: NCC[C@H](O)C(=O)N[C@@H]1C[C@H](N)[C@@H](O[C@H]2O[C@H](CN)[C@@H](O)[C@H](O)[C@H]2O)[C@H](O)[C@H]1O[C@H]1O[C@H](CO)[C@@H](O)[C@H](N)[C@H]1O [Amikacin]
- IC50 [1]: 45 µM

Molecule: CN[C@@H]1[C@@H](O)[C@@H](O[C@@H]2[C@@H](O)[C@H](O[C@H]3OC(CN)=CC[C@H]3N)[C@@H](N)C[C@H]2N)OC[C@]1(C)O [Sisomicin]
- CA1 antidromic PS amplitude recovery ([4]; 1.0 mM, stimulated slices): 70±15%
- CA1 orthodromic PS amplitude recovery ([4]; 1.0 mM, stimulated slices): 76±9%
- CA1 antidromic PS recovery ([4]; 1.0 mM, unstimulated slices): 93±3%
- CA1 orthodromic PS recovery ([4]; 1.0 mM, unstimulated slices): 93±3%
- hypoxic injury potential (HIP) profile ([4]; in words): HIP profiles evolved with a time course similar to untreated slices
- neuronal protection against hypoxia (summary) ([4]; in words): restore orthodromic and antidromic activity; also recorded: high level of neuronal protection against hypoxia
- N-channel blocking potency (in words) [1]: high potency
- N-channel blocking potency (in words) ([1]; listed as sisomicin): most potent N-channel blockers
- IC50 [1]: 5 to 10 µM
- L-channel IC50 [2]: No inhibition

Molecule: NC[C@H]1O[C@H](O[C@H]2[C@H](O[C@@H]3O[C@H](CO)[C@@H](O)[C@H]3O)[C@@H](O)[C@H](N)C[C@@H]2N)[C@H](N)[C@@H](O)[C@@H]1O [Ribostamycin]
- L-channel IC50 [2]: No inhibition

Molecule: Butirosin
- IC50 [1]: 150 µM

Molecule: CNC1C(OC2C(OC3C(O)C(O)C(N=C(N)N)C(O)C3N=C(N)N)OC(C)C2(O)CO)OC(CO)C(O)C1O (stereo not drawn) [Dihydrostreptomicin]
- IC50 [1]: > 50 µM

Molecule: C[C@H]1O[C@H](O[C@H]2[C@H](O)[C@@H](O)[C@@H](O)[C@H](O)[C@@H]2O)[C@@H](N)C[C@@H]1NC(=N)C(=O)O [Kasugamycin]
- IC50 [1]: > 1000 µM

Molecule: NC[C@@H]1O[C@H](O[C@H]2[C@@H](O)[C@H](O[C@@H]3[C@@H](O)[C@H](N)C[C@H](N)[C@H]3O[C@H]3O[C@H](CN)[C@@H](O)[C@H](O)[C@H]3N)O[C@@H]2CO)[C@H](N)[C@@H](O)[C@@H]1O.O=S(=O)(O)O [Neomycin Sulfate]
- % having seizures ([7]; 5 μg ICV): 50%
- % having seizures ([7]; 10 μg ICV): 60%
- protection against seizures ([7]; five or ten micrograms ICV, in words): substantially protected against seizures

Molecule: NC[C@H]1O[C@H](O[C@H]2[C@H](O)[C@@H](O[C@H]3O[C@H](CO)[C@@H](O)[C@H](N)[C@H]3O)[C@H](N)C[C@@H]2N)[C@H](N)C[C@@H]1O [Tobramycin]
- IC50 [1]: > 50 µM

Molecule: NC[C@@H]1CC[C@@H](N)[C@@H](O[C@H]2[C@H](O)[C@@H](O[C@H]3O[C@H](CO)[C@@H](O)[C@H](N)[C@H]3O)[C@H](N)C[C@@H]2N)O1 [Dibekacin]
- IC50 [1]: 60 µM
- L-channel IC50 [2]: No inhibition

Molecule: CN1C(=O)CN=C(c2ccccc2)c2cc(Cl)ccc21 [Diazepam]
- Seizure Score ([3]; 5 ug): 4.4
- % having seizures [9]: 75%

Molecule: NC[C@H]1O[C@H](O[C@H]2[C@H](O)[C@@H](O)[C@H](N)C[C@@H]2N)[C@H](N)[C@@H](O)[C@@H]1O [Neamine]
- IC50 [1]: 25 µM

Molecule: CN[C@H]1C[C@@H](N)[C@H](O)[C@@H](O[C@@H]2O[C@H](CO)[C@H](O)[C@@H]3OC4(O[C@H]23)O[C@H]([C@@H](N)CO)[C@H](O)[C@H](O)[C@H]4O)[C@@H]1O (stereo partly drawn) [Hygromycin B]
- IC50 [1]: > 1000 µM

Molecule: NC[C@@H]1O[C@H](O[C@H]2[C@@H](O)[C@H](O[C@@H]3[C@@H](O)[C@H](N)C[C@H](N)[C@H]3O[C@H]3O[C@H](CO)[C@@H](O)C[C@H]3N)O[C@@H]2CO)[C@H](N)[C@@H](O)[C@@H]1O[C@H]1O[C@H](CO)[C@@H](O)[C@H](O)[C@@H]1O [Lividomycin A]
- IC50 [1]: 50 µM
- L-channel IC50 [2]: No inhibition
